According to patent US20250161501A1, “Radiolabeled Compounds for Imaging of Fibroblast Activation Protein (FAP) and Treatment of FAP-Related Disorders” (Provincial Health Services Authority, priority 2022, published 2025):

Tests used:
[1] = tested on: HEK293T:hFAP tumor xenografts; test: Ex vivo biodistribution of 68Ga-labeled tracers in HEK293T:hFAP tumor-bearing mice; conditions: for Uptake in HEK293T:hFAP tumor xenografts, comparison in words: 68Ga-SB03178 vs 68Ga-FAPI-4, 68Ga-SB04033 vs 68Ga-SB03178
Experimental: (§1) All imaging and biodistribution studies were performed using male NOD-scidIL2Rg^null (NRG) mice and conducted according to the guidelines established by the Canadian Council on Animal Care and approved by Animal Ethics Committee of the University of British Columbia. For tumor inoculations, mice were anesthetized by inhalation with 2% isoflurane in oxygen and implanted subcutaneously with 7.5×10^6 HEK293T:hFAP or U87 cells below the left shoulder. Imaging and biodistribution studies were performed only after tumors grew to 5-8 mm in diameter.
(§2) For ex vivo biodistribution studies, mice were injected with -1-3 MBq of the ^68Ga-labeled tracer. Mice were allowed to recover and roam freely in the cages after injecting the tracer. […] The uptake in each organ/tissue was normalized to the injected dose and expressed as the percentage of the injected dose per gram of tissue (% ID/g).
Biodistribution data for ^68Ga-SB03178, ^68Ga-SB04033, and ^68Ga-FAPI-4 in mice bearing FAP tumor xenografts are presented in Tables 5-7. Data are presented as mean±SD % ID/g.

[2] = target: T1, FAP (Homo sapiens, UniProt Q12884); conditions: literature [25]; cited from earlier work
T1 sequence (Q12884 1-760): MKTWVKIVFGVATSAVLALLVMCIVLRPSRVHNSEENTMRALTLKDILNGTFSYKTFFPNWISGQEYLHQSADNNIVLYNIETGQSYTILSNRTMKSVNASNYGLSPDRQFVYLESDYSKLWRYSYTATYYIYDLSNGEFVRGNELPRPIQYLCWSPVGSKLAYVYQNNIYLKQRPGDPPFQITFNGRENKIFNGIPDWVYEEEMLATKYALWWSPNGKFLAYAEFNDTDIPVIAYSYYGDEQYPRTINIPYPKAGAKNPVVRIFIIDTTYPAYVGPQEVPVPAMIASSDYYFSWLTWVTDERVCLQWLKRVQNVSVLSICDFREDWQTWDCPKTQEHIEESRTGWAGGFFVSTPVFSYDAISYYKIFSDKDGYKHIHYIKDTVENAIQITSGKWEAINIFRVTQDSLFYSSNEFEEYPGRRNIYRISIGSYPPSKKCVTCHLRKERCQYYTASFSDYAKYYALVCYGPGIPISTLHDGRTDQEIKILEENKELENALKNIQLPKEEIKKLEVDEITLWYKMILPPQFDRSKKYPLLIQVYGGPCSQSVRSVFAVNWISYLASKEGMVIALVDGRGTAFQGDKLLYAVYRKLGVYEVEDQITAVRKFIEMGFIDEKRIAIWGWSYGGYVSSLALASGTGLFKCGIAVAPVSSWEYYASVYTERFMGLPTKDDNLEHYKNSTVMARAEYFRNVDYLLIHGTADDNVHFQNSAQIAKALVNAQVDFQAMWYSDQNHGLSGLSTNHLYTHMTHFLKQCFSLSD

[3] = tested on: U87 xenografts; test: Ex vivo biodistribution of 68Ga-labeled tracer in U87 tumor-bearing mice; conditions: U87 tumor model, mean±SD
Experimental: as §1
as §2, with “ID/g). […]” for “ID/g).”

[4] = HEK293T:hFAP tumor model, 1 h post-injection (n = 4), mean±SD
[5] = HEK293T:hFAP tumor model, 3 h post-injection (n = 2), mean±SD
[6] = HEK293T:hFAP tumor xenograft mice, 1 h post-injection, Table 5, mean±SD

## C[C@@H](NC(=O)c1ccnc2c1cc(OCCCN1CCN(C(=O)CN3CCN(CC(=O)O)CCN(CC(=O)O)CCN(CC(=O)O)CC3)CC1)c1ccccc12)C(=O)N1CCC[C@H]1B(O)O [^68Ga-SB04033, metal not drawn]
[1]
  Uptake in HEK293T:hFAP tumor xenografts, comparison in words: weaker uptake
[1]; [4]
  Biodistribution: Adrenal Glands: 0.65 ± 0.46 % ID/g
  Biodistribution: Blood: 3.62 ± 0.47 % ID/g
  Biodistribution: Bone: 1.52 ± 0.22 % ID/g
  Biodistribution: Brain: 0.08 ± 0.01 % ID/g
  Biodistribution: Fat: 0.30 ± 0.15 % ID/g
  Biodistribution: Heart: 0.95 ± 0.12 % ID/g
  Biodistribution: Kidneys: 10.3 ± 0.55 % ID/g
  Biodistribution: Large Intestines: 0.33 ± 0.03 % ID/g
  Biodistribution: Liver: 1.06 ± 0.11 % ID/g
  Biodistribution: Lungs: 2.13 ± 0.33 % ID/g
  Biodistribution: Muscle: 0.54 ± 0.11 % ID/g
  Biodistribution: Pancreas: 0.62 ± 0.05 % ID/g
  Biodistribution: Small Intestine: 1.53 ± 0.20 % ID/g
  Biodistribution: Spleen: 0.98 ± 0.27 % ID/g
  Biodistribution: Stomach: 0.30 ± 0.10 % ID/g
  Biodistribution: Testes: 0.59 ± 0.07 % ID/g
  Biodistribution: Tumor: 5.95 ± 0.16 % ID/g

## N#C[C@@H]1CCCN1C(=O)CNC(=O)c1ccnc2ccc(OCCCN3CCN(C(=O)CN4CCN(CC(=O)O)CCN(CC(=O)O)CCN(CC(=O)O)CC4)CC3)cc12 [^68Ga-FAPI-2, metal not drawn]
[2]
  Tumor uptake over time: reduced quickly over time

## N#C[C@@H]1CC(F)(F)CN1C(=O)CNC(=O)c1ccnc2c1cc(OCCCN1CCN(C(=O)CN3CCN(CC(=O)O)CCN(CC(=O)O)CCN(CC(=O)O)CC3)CC1)c1ccccc12 [^68Ga-SB03178, metal not drawn]
[1]
  Uptake in HEK293T:hFAP tumor xenografts, comparison in words: higher uptake
[1]; [4]
  Biodistribution: Adrenal Glands: 3.01 ± 2.86 % ID/g
  Biodistribution: Blood: 2.59 ± 0.32 % ID/g
  Biodistribution: Bone: 1.89 ± 0.31 % ID/g
  Biodistribution: Brain: 0.06 ± 0.01 % ID/g
  Biodistribution: Fat: 0.22 ± 0.03 % ID/g
  Biodistribution: Heart: 0.71 ± 0.09 % ID/g
  Biodistribution: Kidneys: 9.58 ± 1.21 % ID/g
  Biodistribution: Large Intestines: 0.52 ± 0.21 % ID/g
  Biodistribution: Liver: 1.11 ± 0.15 % ID/g
  Biodistribution: Lungs: 1.66 ± 0.23 % ID/g
  Biodistribution: Muscle: 0.56 ± 0.08 % ID/g
  Biodistribution: Pancreas: 0.57 ± 0.05 % ID/g
  Biodistribution: Small Intestine: 1.04 ± 0.14 % ID/g
  Biodistribution: Spleen: 0.87 ± 0.30 % ID/g
  Biodistribution: Stomach: 0.27 ± 0.19 % ID/g
  Biodistribution: Testes: 0.44 ± 0.08 % ID/g
  Biodistribution: Tumor: 21.0 ± 3.84 % ID/g
[1]; [5]
  Biodistribution: Adrenal Glands: 0.31 ± 0.06 % ID/g
  Biodistribution: Blood: 1.35 ± 1.18 % ID/g
  Biodistribution: Bone: 0.38 ± 0.07 % ID/g
  Biodistribution: Brain: 0.02 ± 0.00 % ID/g
  Biodistribution: Fat: 0.11 ± 0.10 % ID/g
  Biodistribution: Heart: 0.15 ± 0.06 % ID/g
  Biodistribution: Kidneys: 3.89 ± 1.35 % ID/g
  Biodistribution: Large Intestines: 0.53 ± 0.13 % ID/g
  Biodistribution: Liver: 0.33 ± 0.13 % ID/g
  Biodistribution: Lungs: 0.39 ± 0.08 % ID/g
  Biodistribution: Muscle: 0.13 ± 0.08 % ID/g
  Biodistribution: Pancreas: 0.17 ± 0.05 % ID/g
  Biodistribution: Small Intestine: 0.34 ± 0.21 % ID/g
  Biodistribution: Spleen: 0.24 ± 0.07 % ID/g
  Biodistribution: Stomach: 0.06 ± 0.02 % ID/g
  Biodistribution: Testes: 0.12 ± 0.03 % ID/g
  Biodistribution: Tumor: 6.58 ± 1.98 % ID/g
[1]; [6]
  Biodistribution: Adrenal Glands: 3.48 ± 3.31 % ID/g
  Biodistribution: Blood: 3.00 ± 0.38 % ID/g
  Biodistribution: Bone: 2.18 ± 0.35 % ID/g
  Biodistribution: Brain: 0.07 ± 0.01 % ID/g
  Biodistribution: Fat: 0.25 ± 0.04 % ID/g
  Biodistribution: Heart: 0.82 ± 0.10 % ID/g
  Biodistribution: Kidneys: 11.1 ± 1.40 % ID/g
  Biodistribution: Liver: 1.29 ± 0.17 % ID/g
  Biodistribution: Lungs: 1.92 ± 0.26 % ID/g
  Biodistribution: Muscle: 0.65 ± 0.09 % ID/g
  Biodistribution: Pancreas: 0.66 ± 0.06 % ID/g
  Biodistribution: Spleen: 1.00 ± 0.35 % ID/g
  Biodistribution: Stomach: 0.32 ± 0.22 % ID/g
  Biodistribution: Testes: 0.51 ± 0.09 % ID/g
  Biodistribution: Tumor: 24.3±4.44 % ID/g
[3]; 1 h post-injection (n = 3)
  Biodistribution: Adrenal Glands: 1.41 ± 0.38 % ID/g
  Biodistribution: Blood: 3.55 ± 0.22 % ID/g
  Biodistribution: Bone: 2.51 ± 0.66 % ID/g
  Biodistribution: Brain: 0.07 ± 0.01 % ID/g
  Biodistribution: Fat: 0.28 ± 0.18 % ID/g
  Biodistribution: Heart: 0.80 ± 0.06 % ID/g
  Biodistribution: Kidneys: 8.92 ± 1.32 % ID/g
  Biodistribution: Large Intestines: 0.44 ± 0.09 % ID/g
  Biodistribution: Liver: 1.12 ± 0.08 % ID/g
  Biodistribution: Lungs: 1.66 ± 0.10 % ID/g
  Biodistribution: Muscle: 0.57 ± 0.21 % ID/g
  Biodistribution: Pancreas: 0.65 ± 0.11 % ID/g
  Biodistribution: Small Intestine: 1.07 ± 0.03 % ID/g
  Biodistribution: Spleen: 0.48 ± 0.08 % ID/g
  Biodistribution: Stomach: 0.28 ± 0.12 % ID/g
  Biodistribution: Testes: 0.65 ± 0.09 % ID/g
  Biodistribution: Tumor: 16.3 ± 1.72 % ID/g
[3]; 3 h post-injection (n = 3)
  Biodistribution: Adrenal Glands: 0.49 ± 0.30 % ID/g
  Biodistribution: Blood: 0.98 ± 0.09 % ID/g
  Biodistribution: Bone: 1.11 ± 0.27 % ID/g
  Biodistribution: Brain: 0.03 ± 0.00 % ID/g
  Biodistribution: Fat: 0.09 ± 0.04 % ID/g
  Biodistribution: Heart: 0.28 ± 0.01 % ID/g
  Biodistribution: Kidneys: 9.63 ± 1.23 % ID/g
  Biodistribution: Large Intestines: 1.15 ± 0.37 % ID/g
  Biodistribution: Liver: 0.71 ± 0.05 % ID/g
  Biodistribution: Lungs: 0.72 ± 0.11 % ID/g
  Biodistribution: Muscle: 0.34 ± 0.07 % ID/g
  Biodistribution: Pancreas: 0.27 ± 0.06 % ID/g
  Biodistribution: Small Intestine: 0.56 ± 0.16 % ID/g
  Biodistribution: Spleen: 0.34 ± 0.04 % ID/g
  Biodistribution: Stomach: 0.24 ± 0.02 % ID/g
  Biodistribution: Testes: 0.25 ± 0.03 % ID/g
  Biodistribution: Tumor: 7.95 ± 0.29 % ID/g

## N#C[C@@H]1CC(F)(F)CN1C(=O)CNC(=O)c1ccnc2ccc(OCCCN3CCN(C(=O)CN4CCN(CC(=O)O)CCN(CC(=O)O)CCN(CC(=O)O)CC4)CC3)cc12 [^68Ga-FAPI-4, metal not drawn, reference compound]
[2]
  Tumor uptake over time: reduced quickly over time
[1]; [6]
  Biodistribution: Adrenal Glands: 1.09 ± 0.31 % ID/g
  Biodistribution: Blood: 1.09 ± 0.08 % ID/g
  Biodistribution: Bone: 3.39 ± 1.03 % ID/g
  Biodistribution: Brain: 0.05 ± 0.01 % ID/g
  Biodistribution: Fat: 0.11 ± 0.02 % ID/g
  Biodistribution: Heart: 0.35 ± 0.03 % ID/g
  Biodistribution: Kidneys: 1.86 ± 0.10 % ID/g
  Biodistribution: Liver: 0.37 ± 0.02 % ID/g
  Biodistribution: Lungs: 0.75 ± 0.09 % ID/g
  Biodistribution: Muscle: 0.68 ± 0.04 % ID/g
  Biodistribution: Pancreas: 0.38 ± 0.04 % ID/g
  Biodistribution: Spleen: 0.57 ± 0.13 % ID/g
  Biodistribution: Stomach: 0.07 ± 0.02 % ID/g
  Biodistribution: Testes: 0.29 ± 0.04 % ID/g
  Biodistribution: Tumor: 12.7±2.19 % ID/g
